Active and inactive are the calls of the source. How the calls were made is not given here.
Test: cytotoxicity of DAGLb inhibitor compounds, dose response, cytotoxicity control for DAGLb inhibitor project, cell-based, absorbance, serum and serum-free conditions (AID 602337)
Conditions: mammalian cell viability, absorbance readout

Structure (SMILES) | CC50 (with serum) | CC50 (without serum)
COc1ccccc1-c1ccc(-c2cn(C(=O)N3CCCCC3Cc3ccccc3)nn2)cc1 (stereo not drawn) | 3.1 µM | > 100 µM (inactive)
O=C(N1CCCCC1c1ccccc1)n1cc(-c2ccc(-c3ccccc3)cc2)nn1 (stereo not drawn) | > 50 µM (inactive) | > 100 µM (inactive)
COc1ccc(-c2ccc(-c3cn(C(=O)N4CCCCC4c4ccccc4)nn3)cc2)cc1 (stereo not drawn) | 5.9 µM | > 100 µM (inactive)
O=C(N1CCCCC1Cc1ccccc1)n1cc(-c2ccc(-c3ccccc3)cc2)nn1 (stereo not drawn) | 4.2 µM | > 100 µM (inactive)
